Read-outs that look alike come from different tables or passages of the source. Blank lines part the entries; values can stand above or below the compound they belong to.
How the values were obtained:
NmNEPS4 = target: T1, NmNEPS4 (Nepeta racemosa, UniProt A0A7D3UJX6); test: end-point GC-MS coupled assay; type: biochemical; settings: nepetalactol formed in situ with 7S-ISY; NADPH, 5 mM NAD+; pH 8, 30 °C
T1 construct: pOPINF, His-tagged; E. coli SoluBL21; Ni-NTA purified
T1 sequence (A0A7D3UJX6 1-274): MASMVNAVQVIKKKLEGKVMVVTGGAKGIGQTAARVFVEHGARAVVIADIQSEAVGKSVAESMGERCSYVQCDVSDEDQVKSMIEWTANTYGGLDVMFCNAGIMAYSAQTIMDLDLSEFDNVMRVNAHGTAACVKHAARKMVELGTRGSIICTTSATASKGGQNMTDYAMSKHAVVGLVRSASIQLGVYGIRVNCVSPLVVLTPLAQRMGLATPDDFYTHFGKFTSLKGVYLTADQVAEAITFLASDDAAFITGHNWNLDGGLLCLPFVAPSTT

NmNEPS1 = target: T2, NmNEPS1 (Nepeta racemosa, UniProt A0A3Q8GL18); settings: NADPH, 5 mM NAD+, pH 8, 30 °C
T2 construct: gene NEPS1
T2 sequence (A0A3Q8GL18 whole entry): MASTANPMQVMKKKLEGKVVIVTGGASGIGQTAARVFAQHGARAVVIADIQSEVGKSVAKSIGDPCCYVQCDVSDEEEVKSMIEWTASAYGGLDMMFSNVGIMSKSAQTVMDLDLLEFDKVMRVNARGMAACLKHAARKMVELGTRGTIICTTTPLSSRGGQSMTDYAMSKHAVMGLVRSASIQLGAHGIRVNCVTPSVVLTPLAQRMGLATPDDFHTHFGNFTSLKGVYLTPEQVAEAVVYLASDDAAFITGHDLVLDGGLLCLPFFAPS

NcNEPS3A [1] = target: T3, NcNEPS3A (Nepeta cataria, UniProt A0A7D3QLP1); test: end-point GC-MS coupled assay; type: biochemical; settings: nepetalactol formed in situ by the enzyme from ISY product; NADPH, 5 mM NAD+; pH 8, 30 °C
T3 construct: pOPINF, His-tagged; E. coli SoluBL21; Ni-NTA purified
T3 sequence (A0A7D3QLP1 entry or part of it): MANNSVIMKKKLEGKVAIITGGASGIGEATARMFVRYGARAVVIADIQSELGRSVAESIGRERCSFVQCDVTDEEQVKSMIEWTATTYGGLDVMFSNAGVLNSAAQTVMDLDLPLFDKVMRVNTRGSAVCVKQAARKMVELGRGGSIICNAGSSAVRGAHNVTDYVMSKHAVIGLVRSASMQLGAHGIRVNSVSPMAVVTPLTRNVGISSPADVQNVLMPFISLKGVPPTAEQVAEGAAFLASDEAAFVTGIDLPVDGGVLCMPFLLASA

NmNEPS3 [2] = target: T4, NmNEPS3 (Nepeta racemosa, UniProt A0A3Q8GLE8, Q206V); settings: nepetalactol formed in situ by the enzyme from ISY product; NADPH, 5 mM NAD+; pH 8, 30 °C
T4 construct: gene NEPS3
T4 sequence (A0A3Q8GLE8 whole entry Q206V): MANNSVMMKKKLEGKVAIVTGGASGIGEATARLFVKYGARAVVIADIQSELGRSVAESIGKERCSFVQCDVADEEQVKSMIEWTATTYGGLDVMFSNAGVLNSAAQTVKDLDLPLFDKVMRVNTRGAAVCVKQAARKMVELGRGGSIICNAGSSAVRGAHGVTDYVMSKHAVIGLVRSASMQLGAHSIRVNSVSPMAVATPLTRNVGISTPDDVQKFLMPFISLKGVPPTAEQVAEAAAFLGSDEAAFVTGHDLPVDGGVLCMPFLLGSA

NmNEPS3 [3] = target: T5, NmNEPS3 (Nepeta racemosa, UniProt A0A3Q8GLE8); settings: with 7S-ISY and 8-oxogeranial; pH 8, 30 °C; cyclization of 8-oxocitronellyl enol
T5 construct: gene NEPS3
T5 sequence (A0A3Q8GLE8 whole entry): as the sequence (A0A3Q8GLE8 whole entry Q206V) above, with V206Q counted along it

NcNEPS3A [4] = target: T6, NcNEPS3A (Nepeta cataria, UniProt A0A7D3QLP1, V206Q); test: end-point GC-MS coupled assay; type: biochemical; settings: with 7S-ISY and 8-oxogeranial; NADPH, 5 mM NAD+; pH 8, 30 °C
T6 construct: pOPINF, His-tagged; E. coli SoluBL21; Ni-NTA purified
T6 sequence (A0A7D3QLP1 entry or part of it V206Q): as the sequence (A0A7D3QLP1 entry or part of it) above, with V206Q counted along it

- end-point GC-MS coupled assay (NmNEPS4): NmNEPS4 can only oxidize 3a (Fig. 3A)
Compound: CC1=COC(O)[C@H]2[C@@H]1CC[C@@H]2C (stereo partly drawn) [3a, 7S-cis-trans nepetalactol]
- end-point GC-MS coupled assay (NmNEPS1; nepetalactol formed in situ with 7S-ISY): NmNEPS1 is able to oxidize both 3c and 7S-cis-trans nepetalactol 3a

- end-point GC-MS coupled assay (NcNEPS3A [4]): NcNEPS3A-V206Q produces only 3b
Compound: CC1=COC(O)[C@H]2[C@@H](C)CC[C@@H]12 (stereo partly drawn) [3b, 7S-cis-cis nepetalactol]
- end-point GC-MS coupled assay (NcNEPS3A [1]): only NcNEPS3A can oxidize 7S-cis-cis nepetalactol 3b
- end-point GC-MS coupled assay (NmNEPS3 [2]): NmNEPS3-Q206V mutant has restored oxidation activity
- end-point GC-MS coupled assay (NmNEPS3 [3]): NmNEPS3 (N. mussinii), which produces 7S-cis-cis nepetalactol 3b

Compound: CC1=COC(O)[C@@H]2[C@@H]1CC[C@@H]2C (stereo partly drawn) [3c, 7S-trans-cis nepetalactol]
- end-point GC-MS coupled assay (NmNEPS1; nepetalactol formed in situ with 7S-ISY and cyclase): NmNEPS1 is able to oxidize both 3c and 7S-cis-trans nepetalactol 3a
